Experimental data published in ChEMBL document CHEMBL3885881, “DrugMatrix”.

Organism: Rattus norvegicus
Experiment: DrugMatrix - Regimen: Daily Repeat
Format: toxicity, organism-based, Sprague-Dawley
Parameters: regimen Daily Repeat, gender Male, age 6-8 weeks
Conditions: in vivo, po, 620 mg/kg, route oral GAVAGE, dose level High, vehicle 100 % WATER; for BASOPHIL / EOSINOPHIL / ERYTHROCYTE COUNT / HEMATOCRIT / HEMOGLOBIN / LEUKOCYTE COUNT / LYMPHOCYTE / MEAN CORPUSCULAR HEMOGLOBIN / MEAN CORPUSCULAR HEMOGLOBIN CONCENTRATION / MEAN CORPUSCULAR VOLUME / MONOCYTE / NEUTROPHIL / PLATELET COUNT: tissue Blood; for ALANINE AMINOTRANSFERASE / ALBUMIN / ALKALINE PHOSPHATASE / ASPARTATE AMINOTRANSFERASE / BLOOD UREA NITROGEN / CARBON DIOXIDE / CHLORIDE / CHOLESTEROL / CREATINE PHOSPHOKINASE / CREATININE / GLUCOSE / LACTATE DEHYDROGENASE / LIPASE / PHOSPHORUS / POTASSIUM / SODIUM / TOTAL BILIRUBIN / TOTAL PROTEIN / URIC ACID: tissue Plasma

With OCCNCCO [DIETHANOLAMINE] the BASOPHIL (72 h, time 3 day) was 0.67%, the EOSINOPHIL (72 h, time 3 day) was 0.37% and the “ERYTHROCYTE COUNT” value (72 h, time 3 day) was 6.14 x10E6/uL. The HEMATOCRIT (72 h, time 3 day) was 41.37%, the HEMOGLOBIN (72 h, time 3 day) was 13.23 G/DL and the “LEUKOCYTE COUNT” value (72 h, time 3 day) was 8.17 x10E3/uL. The LYMPHOCYTE (72 h, time 3 day) was 87.67%, the “MEAN CORPUSCULAR HEMOGLOBIN” value (72 h, time 3 day) was 21.6 pg and the “MEAN CORPUSCULAR HEMOGLOBIN CONCENTRATION” value (72 h, time 3 day) was 32.1 G/DL. For the same compound, the “MEAN CORPUSCULAR VOLUME” value (72 h, time 3 day) was 67.4 fL, the MONOCYTE (72 h, time 3 day) was 2.03% and the NEUTROPHIL (72 h, time 3 day) was 6.8%. For the same compound, the “PLATELET COUNT” value (72 h, time 3 day) was 1227 x10E3/uL, the “ALANINE AMINOTRANSFERASE” value (72 h, time 3 day) was 45.67 u/L and the ALBUMIN (72 h, time 3 day) was 4.33 G/DL. The “ALKALINE PHOSPHATASE” value (72 h, time 3 day) was 468 u/L, the “ASPARTATE AMINOTRANSFERASE” value (72 h, time 3 day) was 125.67 u/L and the “BLOOD UREA NITROGEN” value (72 h, time 3 day) was 18 mg/dL. For the same compound, the “CARBON DIOXIDE” value (72 h, time 3 day) was 24.33 mmol/L, the CHLORIDE (72 h, time 3 day) was 111 MEQ/L and the CHOLESTEROL (72 h, time 3 day) was 75 mg/dL. The “CREATINE PHOSPHOKINASE” value (72 h, time 3 day) was 164.33 u/L, the CREATININE (72 h, time 3 day) was 0.5 mg/dL and the GLUCOSE (72 h, time 3 day) was 181.67 mg/dL. For the same compound, the “LACTATE DEHYDROGENASE” value (72 h, time 3 day) was 102.67 u/L, the LIPASE (72 h, time 3 day) was 21.33 u/L and the PHOSPHORUS (72 h, time 3 day) was 13.47 mg/dL. For the same compound, the POTASSIUM (72 h, time 3 day) was 6.33 MEQ/L, the SODIUM (72 h, time 3 day) was 154.33 MEQ/L and the “TOTAL BILIRUBIN” value (72 h, time 3 day) was 0.3 mg/dL. The “TOTAL PROTEIN” value (72 h, time 3 day) was 6.5 G/DL, the “URIC ACID” value (72 h, time 3 day) was 2.07 mg/dL and the BASOPHIL (120 h, time 5 day) was 0.47%. For the same compound, the EOSINOPHIL (120 h, time 5 day) was 0.37%, the “ERYTHROCYTE COUNT” value (120 h, time 5 day) was 6.72 x10E6/uL and the HEMATOCRIT (120 h, time 5 day) was 42.63%. The HEMOGLOBIN (120 h, time 5 day) was 13.57 G/DL, the “LEUKOCYTE COUNT” value (120 h, time 5 day) was 7.2 x10E3/uL and the LYMPHOCYTE (120 h, time 5 day) was 85.43%. The “MEAN CORPUSCULAR HEMOGLOBIN” value (120 h, time 5 day) was 20.17 pg, the “MEAN CORPUSCULAR HEMOGLOBIN CONCENTRATION” value (120 h, time 5 day) was 31.77 G/DL and the “MEAN CORPUSCULAR VOLUME” value (120 h, time 5 day) was 63.43 fL. For the same compound, the MONOCYTE (120 h, time 5 day) was 2.37%, the NEUTROPHIL (120 h, time 5 day) was 9.9% and the “PLATELET COUNT” value (120 h, time 5 day) was 1342 x10E3/uL. The “ALANINE AMINOTRANSFERASE” value (120 h, time 5 day) was 54.33 u/L, the ALBUMIN (120 h, time 5 day) was 4.7 G/DL and the “ALKALINE PHOSPHATASE” value (120 h, time 5 day) was 407 u/L. For the same compound, the “ASPARTATE AMINOTRANSFERASE” value (120 h, time 5 day) was 196.33 u/L, the “BLOOD UREA NITROGEN” value (120 h, time 5 day) was 18.33 mg/dL and the “CARBON DIOXIDE” value (120 h, time 5 day) was 26 mmol/L. The CHLORIDE (120 h, time 5 day) was 109.33 MEQ/L, the CHOLESTEROL (120 h, time 5 day) was 82.67 mg/dL and the “CREATINE PHOSPHOKINASE” value (120 h, time 5 day) was 320.67 u/L. The CREATININE (120 h, time 5 day) was 0.33 mg/dL, the GLUCOSE (120 h, time 5 day) was 164.33 mg/dL and the “LACTATE DEHYDROGENASE” value (120 h, time 5 day) was 81.33 u/L. The LIPASE (120 h, time 5 day) was 24.67 u/L, the PHOSPHORUS (120 h, time 5 day) was 12.87 mg/dL and the POTASSIUM (120 h, time 5 day) was 5.67 MEQ/L. For the same compound, the SODIUM (120 h, time 5 day) was 152.67 MEQ/L, the “TOTAL BILIRUBIN” value (120 h, time 5 day) was 0.4 mg/dL and the “TOTAL PROTEIN” value (120 h, time 5 day) was 7.07 G/DL. The “URIC ACID” value (120 h, time 5 day) was 2.27 mg/dL, the BASOPHIL ([…], time 14 day) was 1.68% and the EOSINOPHIL ([…], time 14 day) was 0.28%. The “ERYTHROCYTE COUNT” value ([…], time 14 day) was 6.33 x10E6/uL, the HEMATOCRIT ([…], time 14 day) was 37.84% and the HEMOGLOBIN ([…], time 14 day) was 12.58 G/DL. For the same compound, the “LEUKOCYTE COUNT” value ([…], time 14 day) was 17.16 x10E3/uL, the LYMPHOCYTE ([…], time 14 day) was 79.3% and the “MEAN CORPUSCULAR HEMOGLOBIN” value ([…], time 14 day) was 19.88 pg. The “MEAN CORPUSCULAR HEMOGLOBIN CONCENTRATION” value ([…], time 14 day) was 33.26 G/DL, the “MEAN CORPUSCULAR VOLUME” value ([…], time 14 day) was 59.7 fL and the MONOCYTE ([…], time 14 day) was 1.7%. For the same compound, the NEUTROPHIL ([…], time 14 day) was 15.34%, the “PLATELET COUNT” value ([…], time 14 day) was 590 x10E3/uL and the “ALANINE AMINOTRANSFERASE” value ([…], time 14 day) was 40.2 u/L. The ALBUMIN ([…], time 14 day) was 4.34 G/DL, the “ALKALINE PHOSPHATASE” value ([…], time 14 day) was 449 u/L and the “ASPARTATE AMINOTRANSFERASE” value ([…], time 14 day) was 305.8 u/L. For the same compound, the “BLOOD UREA NITROGEN” value ([…], time 14 day) was 32.2 mg/dL, the “CARBON DIOXIDE” value ([…], time 14 day) was 27.6 mmol/L and the CHLORIDE ([…], time 14 day) was 106 MEQ/L. For the same compound, the CHOLESTEROL ([…], time 14 day) was 46.6 mg/dL, the “CREATINE PHOSPHOKINASE” value ([…], time 14 day) was 123.4 u/L and the CREATININE ([…], time 14 day) was 0.56 mg/dL. For the same compound, the GLUCOSE ([…], time 14 day) was 162 mg/dL, the “LACTATE DEHYDROGENASE” value ([…], time 14 day) was 58 u/L and the LIPASE ([…], time 14 day) was 19 u/L. It also gave a PHOSPHORUS ([…], time 14 day) of 12.6 mg/dL, a POTASSIUM ([…], time 14 day) of 5.54 MEQ/L and an SODIUM ([…], time 14 day) of 151 MEQ/L. The “TOTAL BILIRUBIN” value ([…], time 14 day) was 0.34 mg/dL, the “TOTAL PROTEIN” value ([…], time 14 day) was 6.32 G/DL and the “URIC ACID” value ([…], time 14 day) was 0.68 mg/dL.
